Results: ChEMBL document CHEMBL4020734, “Identification of a novel fluoropyrrole derivative as a potassium-competitive acid blocker with long duration of action” (Bioorg Med Chem, 2017)
The source made the active and inactive calls. No cut-off for these calls is given here.

Key:
[1] = Inhibition of H+/K+-ATPase in porcine stomach gastric mucosal microsomes assessed as reduction in inorganic phosphate production using ATP as substrate preincubated for 30 mins followed by ATP addition in presence of KCl by malachite green reagent based colorimetric assay; set-up: species or system Sus scrofa
[2] = Lipophilicity, log D of the compound at pH 7.4 by HPLC analysis; format: physicochemical; conditions: buffer
hERG (KCNH2) = hERG (KCNH2) (Homo sapiens, UniProt Q12809); assay: Inhibition of human ERG expressed in HEK cells at 10 uM at -75 mV holding potential by Whole-cell voltage clamp assay relative to control; format: cell-based; conditions: HEK cells expressing human ERG
Sequence of hERG (KCNH2) (Q12809 whole entry): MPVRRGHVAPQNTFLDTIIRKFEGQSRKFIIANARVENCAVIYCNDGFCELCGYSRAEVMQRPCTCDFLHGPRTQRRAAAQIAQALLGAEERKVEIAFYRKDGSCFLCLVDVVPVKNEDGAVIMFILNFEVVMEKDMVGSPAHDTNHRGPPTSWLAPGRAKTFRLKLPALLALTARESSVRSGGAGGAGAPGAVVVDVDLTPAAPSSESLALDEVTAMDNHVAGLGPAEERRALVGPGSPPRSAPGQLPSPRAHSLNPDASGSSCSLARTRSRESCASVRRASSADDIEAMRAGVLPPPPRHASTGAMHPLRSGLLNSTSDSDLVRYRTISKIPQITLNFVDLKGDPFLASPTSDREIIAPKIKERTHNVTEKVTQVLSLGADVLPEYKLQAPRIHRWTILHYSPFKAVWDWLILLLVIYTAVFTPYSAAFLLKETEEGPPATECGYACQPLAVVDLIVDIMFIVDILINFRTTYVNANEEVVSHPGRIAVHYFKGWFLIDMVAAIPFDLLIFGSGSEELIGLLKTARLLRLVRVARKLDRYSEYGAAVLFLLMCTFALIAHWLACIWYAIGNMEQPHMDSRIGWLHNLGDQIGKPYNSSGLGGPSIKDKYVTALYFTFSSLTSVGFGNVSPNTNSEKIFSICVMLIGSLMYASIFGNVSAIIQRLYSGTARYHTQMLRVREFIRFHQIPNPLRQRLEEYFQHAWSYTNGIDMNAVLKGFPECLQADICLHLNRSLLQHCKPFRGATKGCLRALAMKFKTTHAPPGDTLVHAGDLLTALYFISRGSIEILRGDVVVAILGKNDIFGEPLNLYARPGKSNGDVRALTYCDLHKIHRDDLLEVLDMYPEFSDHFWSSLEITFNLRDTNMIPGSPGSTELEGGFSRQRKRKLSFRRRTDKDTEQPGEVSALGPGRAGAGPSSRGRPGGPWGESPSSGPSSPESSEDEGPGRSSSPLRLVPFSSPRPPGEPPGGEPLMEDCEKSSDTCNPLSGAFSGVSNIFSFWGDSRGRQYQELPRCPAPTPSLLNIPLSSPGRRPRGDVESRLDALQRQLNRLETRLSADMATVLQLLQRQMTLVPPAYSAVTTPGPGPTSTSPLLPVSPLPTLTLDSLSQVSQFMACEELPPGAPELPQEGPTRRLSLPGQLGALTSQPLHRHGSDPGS

[3] = Cytotoxicity against human HepG2 cells assessed as cellular ATP level at 100 uM after 1 day by ATPLite assay relative to control; format: cell-based; conditions: read-out: Activity
Rattus norvegicus [4] = assay: Inhibition of histamine-induced acid secretion in Jcl:SD rat gastric at 1 mg/kg, iv pretreated for 3 mins followed by histamine.2HCl treatment measured after 3 hrs by titration method; format: functional
Rattus norvegicus [5] = assay: Inhibition of histamine-induced acid secretion in Jcl:SD rat gastric assessed as increase in pH of gastric perfusate at 3 mg/kg, iv pretreated for 3 mins followed by histamine.2HCl treatment measured up to 5 hrs by glass electrode method; format: functional, organism-based
Rattus norvegicus [6] = assay: Inhibition of histamine-induced acid secretion in Jcl:SD rat gastric assessed as pH of gastric perfusate at 3 mg/kg, iv pretreated for 3 mins followed by histamine.2HCl treatment measured in early time point by glass electrode method (reference value: 2); format: functional
[7] = Inhibition of CYP450 (unknown origin); format: ADME; conditions: human
Canis familiaris [8] = assay: Inhibition of histamine-induced acid secretion in dog heidenhain pouch at 3 mg/kg, po treated 1 day after and 1 to 48 hrs before histamine.2HCl treatment measured 30 mins post histamine challenge by titration method; format: functional, organism-based; conditions: Canis lupus familiaris
[9] = Cytotoxicity against human HepG2 cells assessed as cellular ATP level at 30 uM after 1 day by ATPLite assay relative to control; format: cell-based; conditions: read-out: Activity
[10] = Effective permeability of the compound at 10 uM at pH 7.4 after 3 hrs by PAMPA; format: physicochemical; conditions: read-out: Peff
[11] = Stability of the compound under acidic condition; format: physicochemical
Rattus norvegicus [12] = assay: Inhibition of histamine-induced acid secretion in po dosed rat gastric pretreated for 1 hr followed by histamine.2HCl treatment measured after 3 hrs by titration method; format: functional, organism-based
Rattus norvegicus [13] = assay: Inhibition of histamine-induced acid secretion in Jcl:SD rat gastric assessed as pH of gastric perfusate at 0.7 mg/kg, iv pretreated for 3 mins followed by histamine.2HCl treatment measured after 5 hrs by glass electrode method (reference value: 2); format: functional
[14] = Effective permeability of the compound at 10 uM at pH 5 after 3 hrs by PAMPA; format: physicochemical; conditions: read-out: Peff
[15] = Dissociation constant, pKa of the compound; format: physicochemical
Canis familiaris [16] = assay: Inhibition of histamine-induced acid secretion in dog heidenhain pouch at 0.8 mg/kg, po treated 1 day after and 1 to 48 hrs before histamine.2HCl treatment measured 30 mins post histamine challenge by titration method; format: functional; conditions: Canis lupus familiaris
Rattus norvegicus [17] = assay: Inhibition of histamine-induced acid secretion in Jcl:SD rat gastric assessed as pH of gastric perfusate at 1 mg/kg, iv pretreated for 3 mins followed by histamine.2HCl treatment measured after 150 to 180 mins by glass electrode method (reference value: 2); format: functional
[18] = Solubility of the compound; format: physicochemical
[19] = Metabolic stability of the compound
Canis familiaris [20] = assay: Inhibition of histamine-induced acid secretion in dog heidenhain pouch at 1 mg/kg, po treated 1 day after and 1 to 48 hrs before histamine.2HCl treatment measured 30 mins post histamine challenge by titration method; format: functional, organism-based; conditions: Canis lupus familiaris
Rattus norvegicus [21] = assay: Inhibition of histamine-induced acid secretion in Jcl:SD rat gastric assessed as increase in pH of gastric perfusate at 1 mg/kg, iv pretreated for 3 mins followed by histamine.2HCl treatment measured after 2 hrs by glass electrode method; format: functional, organism-based
Rattus norvegicus [22] = assay: Inhibition of histamine-induced acid secretion in Jcl:SD rat gastric assessed as pH of gastric perfusate at 1 mg/kg, iv pretreated for 3 mins followed by histamine.2HCl treatment measured up to 2 hrs by glass electrode method (reference value: 2); format: functional

| Structure (SMILES) | IC50 [1] | logD [2] | inhibition at 10 µM (hERG (KCNH2)) | viability at 24 h, 100 µM [3] | inhibition in vivo at 1 mg/kg (Rattus norvegicus [4]) | further results |
| --- | --- | --- | --- | --- | --- | --- |
| CNCc1cc(-c2ccncc2F)n(S(=O)(=O)c2cccnc2)c1 | 290 nM | -0.34 | 18.8% | 78.8% | 48% | – |
| CNCc1cc(-c2ncccc2C)n(S(=O)(=O)c2cccnc2)c1 | 1300 nM | 0.53 | – | 88.7% | 5% | – |
| Cc1c(OCC(F)(F)F)ccnc1C[S+]([O-])c1nc2ccccc2[nH]1 (stereo not drawn) [LANSOPRAZOLE] | – | – | – | – | – | inhibition (Rattus norvegicus [5]): inactive; pH (Rattus norvegicus [6]): <5; inhibition (INH) [7]: Active; inhibition (Canis familiaris [8]): Active |
| CNCc1cn(S(=O)(=O)c2cccnc2)c(-c2cccnc2F)c1C | 220 nM | -0.4 | 30.3% | 47.1% | 93% | – |
| CNCc1cc(-c2ccccc2)n(S(=O)(=O)c2cccnc2)c1 | – | 0.73 | – | – | – | – |
| CNCc1cc(-c2cccnc2F)n(S(=O)(=O)c2cccc(OC)c2)c1 | 28 nM | 0.1 | 72.8% | 30.6% | 92% | – |
| CNCc1cc(-c2ccccc2C(F)(F)F)n(S(=O)(=O)c2ccc(C)cc2)c1 | 88 nM | 1.94 | – | – | 86% | viability at 24 h, 30 µM [9]: 0.5% |
| CNCc1cc(-c2cccnc2C#N)n(S(=O)(=O)c2cccnc2)c1 | 530 nM | -1.29 | 1.9% | 85.3% | 48% | – |
| CNCc1cn(S(=O)(=O)c2cccnc2)c(-c2cccnc2F)c1F | 49 nM | 0.04 | 39.8% | 100% | 98% | Papp at 3 h, 10 µM [10]: 25.6 ×10⁻⁶ cm/s; Stability [11]: Stable; inhibition (Rattus norvegicus [12]): Dose-dependent effect; pH (Rattus norvegicus [13]): 6; Papp at 3 h, 10 µM [14]: 4.7 ×10⁻⁶ cm/s; pKa [15]: 8.54; inhibition (INH) [7]: Not Active; inhibition in vivo at 0.8 mg/kg (Canis familiaris [16]): 100% |
| CNCc1cc(-c2ccc(F)cc2)n(S(=O)(=O)c2ccc(C)cc2)c1 | 90 nM | 2.05 | – | – | 86% | viability at 24 h, 30 µM [9]: 0.4%; pKa [15]: 9.4 |
| CNCc1cc(-c2cccnc2F)n(S(=O)(=O)c2cccnc2)c1 | 210 nM | -0.85 | 4.4% | 85.7% | 96% | pH (Rattus norvegicus [17]): 5 |
| CNCc1cc(-c2cccnc2)n(S(=O)(=O)c2ccccc2)c1 | 130 nM | 0.08 | 43.3% | 95% | 4% | solubility [18]: Soluble; Stability [19]: Stable; inhibition (INH) [7]: Not Active |
| CNCc1cc(-c2cccnc2F)n(S(=O)(=O)c2ccccc2)c1 | 26 nM | -0.09 | 57% | 59.9% | 99% | – |
| CNCc1cc(-c2ccccc2)n(S(=O)(=O)c2ccc(OC)cc2)c1 | 30 nM | 1.54 | 89.1% | – | 95% | Papp at 3 h, 10 µM [10]: 24.6 ×10⁻⁶ cm/s; viability at 24 h, 30 µM [9]: 22.1%; inhibition (Canis familiaris [20]): Active; Papp at 3 h, 10 µM [14]: 19.8 ×10⁻⁶ cm/s; pKa [15]: 9.48 |
| CNCc1cc(-c2cccnc2F)n(S(=O)(=O)c2cccc(C#N)c2)c1 | 89 nM | -0.36 | 46.7% | 46.7% | 99% | – |
| CNCc1cc(-c2cncnc2)n(S(=O)(=O)c2ccccc2)c1 | 410 nM | -0.4 | 24.2% | 97.5% | – | – |
| CNCc1cn(S(=O)(=O)c2cccnc2)c(-c2cccnc2F)c1Cl | 99 nM | 0.48 | 41.3% | 64.5% | 95% | – |
| CNCc1cc(-c2ccccc2)n(S(=O)(=O)c2ccccc2)c1 | 9.4 nM | 1.44 | 87.5% | – | 96% | viability at 24 h, 30 µM [9]: 53.8% |

| Structure (SMILES) | IC50 [1] | logD [2] | inhibition at 10 µM (hERG (KCNH2)) | viability at 24 h, 100 µM [3] | inhibition in vivo at 1 mg/kg (Rattus norvegicus [4]) | further results |
| --- | --- | --- | --- | --- | --- | --- |
| CNCc1cc(-c2ccccc2)n(S(=O)(=O)c2ccc(C)cc2)c1 | 46 to 55 nM | 1.83 | – | – | 66% | viability at 24 h, 30 µM [9]: 38.6%; pKa [15]: 9.49 |
| CNCc1cc(-c2cccnc2Cl)n(S(=O)(=O)c2cccnc2)c1 | 120 nM | -0.5 | 10.6% | 82.9% | 92% | – |
| CNCc1cc(-c2cnccc2C)n(S(=O)(=O)c2cccnc2)c1 | 230 nM | -0.51 | 8.3% | 86% | -54% | – |
| CNCc1cc(-c2cccnc2F)n(S(=O)(=O)c2ccoc2)c1 | 92 nM | -1.31 | 59.3% | 77.4% | 82% | – |
| CNCc1cc(-c2ccccn2)n(S(=O)(=O)c2ccccc2)c1 | 120 nM | 0.28 | 48% | 91.2% | – | – |
| CNCc1cc(-c2cccc(F)c2)n(S(=O)(=O)c2ccc(C)cc2)c1 | 19 nM | 1.98 | – | – | 77% | viability at 24 h, 30 µM [9]: 0.6%; pKa [15]: 9.31 |
| CNCc1cc(-c2ccccc2F)n(S(=O)(=O)c2ccc(C)cc2)c1 | 34 nM | 1.56 | – | – | 91% | viability at 24 h, 30 µM [9]: 8%; pKa [15]: 9.48 |
| CNCc1cc(-c2cccnc2F)n(S(=O)(=O)c2ccsc2)c1 | 32 nM | -0.83 | 60% | 64% | 98% | – |
| CNCc1cc(-c2cccnc2F)n(S(=O)(=O)c2ccccn2)c1 | 120 nM | 0.05 | – | 78.6% | 81% | – |
| CNCc1cc(-c2ccccc2C)n(S(=O)(=O)c2ccc(C)cc2)c1 | 62 nM | 2.12 | – | – | 92% | viability at 24 h, 30 µM [9]: 0.3% |
| CNCc1cc(-c2cccnc2Cl)n(S(=O)(=O)c2ccccc2)c1 | 43 nM | -0.1 | 40.9% | 76.3% | 99% | – |
| CNCc1cc(-c2cccnc2F)n(S(=O)(=O)c2cccc(F)c2)c1 | 33 nM | 0.23 | 56.2% | 65.9% | 99% | – |
| CNCc1cc(-c2cccnc2F)n(S(=O)(=O)c2cccs2)c1 | 32 nM | -0.69 | 63% | 74.9% | 96% | – |
| CNCc1cc(-c2cccnc2C)n(S(=O)(=O)c2cccnc2)c1 | 250 nM | 0.06 | – | 107% | -41% | – |
| CNCc1cc(-c2cccnc2F)n(S(=O)(=O)c2ccc(OC)nc2)c1 | 40 nM | 0.24 | 33.1% | 47.6% | 97% | – |
| CNCc1cc(-c2cccnc2F)n(S(=O)(=O)c2ccco2)c1 | 59 nM | -1.15 | 49.1% | 68.7% | 74% | – |
| CNCc1cc(-c2ccccc2F)n(S(=O)(=O)c2cccnc2)c1 [VONOPRAZAN] | – | 0.39 | – | – | – | pKa [15]: 9.3 |
| CNCc1cc(-c2cccnc2C#N)n(S(=O)(=O)c2ccccc2)c1 | 120 nM | -0.32 | 32.9% | 82.1% | 99% | inhibition (Rattus norvegicus [21]): inactive; pH (Rattus norvegicus [22]): >5 |
